Earlier results in US20090011041A1, “Compositions for Correcting Age Related Changes of a Human Endocrine System and Methods for Producing a Pharmaceutical Form Bases on Said Compositions” (priority 2004, published 2009).
Like-named read-outs stand apart in the source and are kept apart here.

Tests used:
[1] = system: production of IL-6 by peripheral mononuclears; conditions: dose-dependent manner; p<0.01
[2] = for distribution volume: after PO use
IGF-1 level = conditions: elderly patients; 50 mg/day; p<0.01
[3] = DHEA 50 mg/day, placebo effect less than 10%

| SMILES | production of IL-6 by peripheral mononuclears [1] | distribution volume [2] | half-life period ([2]; b32) | half-life period ([2]; b33) | metabolic clearance rate (MCR) ([2]; in vivo) | renal excretion, share of the elimination of DHEA-S and its metabolites ([2]; in vivo) | IGF-1 level (IGF-1 level) | hyperglycemia and hyperinsulinemia (diabetic mice) | half-life elimination period ([2]; b33) | improvement in the physical and mental state, females ([3]; females) | improvement in the physical and mental state, males ([3]; males) |
| --- | --- | --- | --- | --- | --- | --- | --- | --- | --- | --- | --- |
| C[C@]12CCC(=O)C=C1CC[C@@H]1[C@@H]2CC[C@]2(C)C(=O)CC[C@@H]12 [androstenedione] | inhibit the production of IL-6 |  |  |  |  |  |  |  |  |  |  |
| C[C@]12CC[C@H](OS(=O)(=O)O)CC1=CC[C@@H]1[C@@H]2CC[C@]2(C)C(=O)CC[C@@H]12 [DHEA-S, DHEA-sulfate] | inhibit the production of IL-6 | 8.5 to 9.3 L | 7 to 10 h | 7 to 22 h | 5 to 20 L/day | 51-73% |  |  |  |  |  |
| C[C@]12CC[C@H](O)CC1=CC[C@@H]1[C@@H]2CC[C@]2(C)C(=O)CC[C@@H]12 [DHEA, dehydroepiandrosterone] | inhibit the production of IL-6 | 17 to 38.5 L | 0.25 to 0.5 h |  | 2000 L/day |  | increases the IGF-1 level | reduces hyperglycemia and hyperinsulinemia | 0.25 to 0.633 h | 84% | 67% |
